How the values were obtained:
Assay in all cases: cell viability (% survival relative to DMSO control); higher = less cytotoxic
Conditions in all cases: 72 h
BV-173 = system: BV-173
Description: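 8x8 drug-combination matrices (0–5000 nM; rosiglitazone and lestaurtinib 0–1000 nM) were run in BV-173 cells for 72 h with CellTiter-Glo read-out. Survival is normalised to DMSO and 10 µM bortezomib and clipped at 100%.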

Mono-Mac-6 = system: Mono-Mac-6
Description: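 8x8 drug-combination matrices (0–5000 nM; rosiglitazone and lestaurtinib 0–1000 nM) were run in Mono-Mac-6 cells for 72 h with CellTiter-Glo read-out. Survival is normalised to DMSO and 10 µM bortezomib and clipped at 100%.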

HL-60 = system: HL-60
Description: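 8x8 drug-combination matrices (0-5000 nM; rosiglitazone and lestaurtinib 0-1000 nM) were run in HL-60 cells for 72 h with a CellTiter-Glo read-out. Survival is normalised to DMSO and 10 µM bortezomib and clipped at 100%. Bliss synergy was analysed in SynergyFinder.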

O=C(C1CC1)N1CC[C@@H](C=C2NNC(=O)N2c2ccc(-c3ccc4occc4c3)cc2)C1 + O=C(c1c2ccccc2cc2ccccc12)N1CCC(N2CCC[C@@H](C(=O)N3CCOCC3)C2)CC1 [CP-640186]
cell viability [%]
Conditions	drug1 concentration 5 nM	drug1 concentration 10 nM	drug1 concentration 50 nM	drug1 concentration 100 nM	drug1 concentration 500 nM	drug1 concentration 1000 nM	drug1 concentration 5000 nM
BV-173, drug2 concentration 5 nM	96.3	> 100	> 100	> 100	97.3	98.1	77.8
BV-173, drug2 concentration 10 nM	> 100	> 100	87.8	> 100	> 100	96.1	58.3
BV-173, drug2 concentration 50 nM	> 100	> 100	> 100	> 100	91.1	78.9	97.1
BV-173, drug2 concentration 100 nM	> 100	> 100	> 100	> 100	> 100	> 100	> 100
BV-173, drug2 concentration 500 nM	> 100	> 100	> 100	> 100	> 100	> 100	96.6
BV-173, drug2 concentration 1000 nM	86.4	> 100	> 100	91.9	> 100	> 100	> 100
BV-173, drug2 concentration 5000 nM	> 100	> 100	87.5	99.5	91.6	> 100	> 100
HL-60, drug2 concentration 5 nM	79.6	> 100	88.2	88.2	60	71.7	88.2
HL-60, drug2 concentration 10 nM	96.6	97.7	86.2	86.2	91.2	72	64.5
HL-60, drug2 concentration 50 nM	90	95.2	82.5	88	81.8	68.2	74.1
HL-60, drug2 concentration 100 nM	88	90	78.2	90.5	74.4	63.6	72.3
HL-60, drug2 concentration 500 nM	86.2	88.5	75.1	91.1	70.5	57.8	71.1
HL-60, drug2 concentration 1000 nM	84	84.2	70.3	75.1	61.5	56.3	79.2
HL-60, drug2 concentration 5000 nM	77.2	79.4	72	74.6	52.4	53.7	66.5
Mono-Mac-6, drug2 concentration 5 nM	77.8	> 100	88.2	84.8	85.5	88.8	> 100
Mono-Mac-6, drug2 concentration 10 nM	> 100	> 100	> 100	90.7	81.2	> 100	63.7
Mono-Mac-6, drug2 concentration 50 nM	99.3	89.7	> 100	> 100	> 100	> 100	> 100
Mono-Mac-6, drug2 concentration 100 nM	87.7	> 100	> 100	99.8	> 100	91.2	87.4
Mono-Mac-6, drug2 concentration 500 nM	95.2	87	87.4	86.2	> 100	> 100	79.5
Mono-Mac-6, drug2 concentration 1000 nM	88.8	> 100	> 100	84.9	> 100	98.8	99.4
Mono-Mac-6, drug2 concentration 5000 nM	> 100	70.2	98.1	99.4	81.6	72.4	> 100

CC(C)c1onc(-c2c(Cl)cccc2Cl)c1COc1ccc(/C=C/c2cccc(C(=O)O)c2)c(Cl)c1 [GW4064] + Cn1cc(-c2ccncc2)c(-c2ccc(OCc3ccc4ccccc4n3)cc2)n1 [PF-02545920]
cell viability [%]
Conditions	drug1 concentration 5 nM	drug1 concentration 10 nM	drug1 concentration 50 nM	drug1 concentration 100 nM	drug1 concentration 500 nM	drug1 concentration 1000 nM	drug1 concentration 5000 nM
BV-173, drug2 concentration 5 nM	> 100	> 100	> 100	90.6	> 100	> 100	> 100
BV-173, drug2 concentration 10 nM	> 100	95.5	95.6	> 100	> 100	> 100	98
BV-173, drug2 concentration 50 nM	> 100	88.5	> 100	> 100	> 100	80.7	74
BV-173, drug2 concentration 100 nM	> 100	> 100	> 100	> 100	> 100	> 100	97
BV-173, drug2 concentration 500 nM	97.3	93.2	96	> 100	> 100	> 100	> 100
BV-173, drug2 concentration 1000 nM	> 100	> 100	82.7	99.2	95.5	87.3	81.7
BV-173, drug2 concentration 5000 nM	90.7	90.2	79.3	96.2	92.8	78.5	> 100
HL-60, drug2 concentration 5 nM	> 100	98.6	> 100	> 100	> 100	> 100	78.8
HL-60, drug2 concentration 10 nM	> 100	> 100	> 100	> 100	97	> 100	89.8
HL-60, drug2 concentration 50 nM	> 100	> 100	> 100	> 100	> 100	68.7	> 100
HL-60, drug2 concentration 100 nM	81.7	> 100	88.4	76.3	> 100	> 100	53.4
HL-60, drug2 concentration 500 nM	> 100	65.9	> 100	> 100	> 100	> 100	> 100
HL-60, drug2 concentration 1000 nM	97.1	> 100	> 100	> 100	> 100	46.6	> 100
HL-60, drug2 concentration 5000 nM	> 100	> 100	> 100	> 100	> 100	89.8	> 100
Mono-Mac-6, drug2 concentration 5 nM	> 100	> 100	> 100	85.7	80.4	88.9	> 100
Mono-Mac-6, drug2 concentration 10 nM	92.5	> 100	79.3	78.5	87.6	94.3	99.8
Mono-Mac-6, drug2 concentration 50 nM	> 100	> 100	> 100	86	97.2	66.9	99.9
Mono-Mac-6, drug2 concentration 100 nM	> 100	90.5	> 100	86.8	> 100	> 100	82.2
Mono-Mac-6, drug2 concentration 500 nM	81.2	69.3	> 100	> 100	94.8	87.9	> 100
Mono-Mac-6, drug2 concentration 1000 nM	93.3	> 100	77.2	98.6	96.1	89.8	81.4
Mono-Mac-6, drug2 concentration 5000 nM	74.5	91.6	65	76.7	96.5	85.1	87.7
